What was measured:
Cytochrome P450 3A4 [1] = target: T1, Cytochrome P450 3A4 (Homo sapiens, UniProt P08684); experiment: Fraction metabolized assessed as human recombinant CYP3A4-mediated drug depletion by LC-MS/MS method relative to total normalized intrinsic clearance; format: ADME; conditions: recombinant enzyme
Cytochrome P450 2C9 [2] = target: T2, Cytochrome P450 2C9 (Homo sapiens, UniProt P11712); experiment: Drug metabolism in human liver microsomes assessed as CYP3A4-mediated drug depletion in presence of CYP2C9 inhibitor sulfaphenazole by LC-MS/MS method; format: ADME
Cytochrome P450 2C19 [3] = target: T3, Cytochrome P450 2C19 (Homo sapiens, UniProt P33261); experiment: Drug metabolism in human liver microsomes assessed as CYP3A4-mediated drug depletion in presence of CYP2C19 inhibitor modafinil by LC-MS/MS method; format: ADME
Cytochrome P450 3A4 [4] = target: T1, Cytochrome P450 3A4; experiment: Drug metabolism in human liver microsomes assessed as CYP3A4-mediated drug depletion in presence of CYP2D6 inhibitor quinidine by LC-MS/MS method; format: ADME
Plasma [5] = experiment: Drug level in human plasma treated with [14C}LY2452473 at 15 mg, po after 4 hrs administered as single dose by HPLC analysis relative to total radioactivity; format: ADME, organism-based; conditions: in vivo
[6] = Drug excretion in feces of human treated with [14C}LY2452473 at 15 mg, po administered as single dose by HPLC analysis; format: ADME, organism-based; conditions: read-out: Drug excretion
[7] = Drug level in urine of human treated with [14C}LY2452473 at 15 mg, po administered as single dose by LC-MS/MS method; format: ADME, organism-based; conditions: in vivo
[8] = Drug level in feces of human treated with [14C}LY2452473 at 15 mg, po administered as single dose by LC-MS/MS method; format: ADME, organism-based; conditions: in vivo
Cytochrome P450 1A2 = target: T4, Cytochrome P450 1A2 (Homo sapiens, UniProt P05177); experiment: Drug metabolism assessed as human recombinant CYP1A2-mediated drug depletion by LC-MS/MS method; format: ADME; conditions: recombinant enzyme
T4 sequence (P05177 whole entry): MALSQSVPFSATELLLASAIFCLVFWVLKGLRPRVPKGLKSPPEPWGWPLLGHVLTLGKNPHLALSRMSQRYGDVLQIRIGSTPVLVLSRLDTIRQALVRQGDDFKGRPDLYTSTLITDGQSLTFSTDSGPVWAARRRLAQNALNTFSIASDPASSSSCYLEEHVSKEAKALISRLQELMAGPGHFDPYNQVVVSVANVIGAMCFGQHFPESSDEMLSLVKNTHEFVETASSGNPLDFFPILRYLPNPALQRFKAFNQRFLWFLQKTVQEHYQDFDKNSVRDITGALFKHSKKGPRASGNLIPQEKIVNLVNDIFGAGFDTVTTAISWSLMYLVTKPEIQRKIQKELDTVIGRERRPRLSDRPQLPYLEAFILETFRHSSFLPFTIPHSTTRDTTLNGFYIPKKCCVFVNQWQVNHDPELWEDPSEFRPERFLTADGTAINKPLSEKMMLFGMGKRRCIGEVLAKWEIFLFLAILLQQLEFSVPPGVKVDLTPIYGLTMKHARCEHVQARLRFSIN

Cytochrome P450 2B6 = target: T5, Cytochrome P450 2B6 (Homo sapiens, UniProt P20813); experiment: Drug metabolism assessed as human recombinant CYP2B6-mediated drug depletion by LC-MS/MS method; format: ADME; conditions: recombinant enzyme
T5 sequence (P20813 whole entry): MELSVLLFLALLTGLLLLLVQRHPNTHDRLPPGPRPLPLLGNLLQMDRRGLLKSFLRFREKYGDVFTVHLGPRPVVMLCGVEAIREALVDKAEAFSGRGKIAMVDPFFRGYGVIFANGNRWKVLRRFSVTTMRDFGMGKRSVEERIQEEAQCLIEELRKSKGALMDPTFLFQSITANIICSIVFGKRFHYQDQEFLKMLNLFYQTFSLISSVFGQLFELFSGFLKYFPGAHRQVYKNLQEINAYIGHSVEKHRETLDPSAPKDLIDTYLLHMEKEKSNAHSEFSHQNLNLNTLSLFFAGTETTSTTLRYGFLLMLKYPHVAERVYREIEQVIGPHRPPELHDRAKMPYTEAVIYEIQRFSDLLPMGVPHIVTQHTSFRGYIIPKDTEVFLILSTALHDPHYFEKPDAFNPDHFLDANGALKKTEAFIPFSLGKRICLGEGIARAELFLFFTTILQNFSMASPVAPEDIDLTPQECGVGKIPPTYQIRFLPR

Cytochrome P450 2E1 = Cytochrome P450 2E1 (Homo sapiens, UniProt P05181); experiment: Drug metabolism assessed as human recombinant CYP2E1-mediated drug depletion by LC-MS/MS method; format: ADME; conditions: recombinant enzyme
Cytochrome P450 3A5 = Cytochrome P450 3A5 (Homo sapiens, UniProt P20815); experiment: Drug metabolism assessed as human recombinant CYP3A5-mediated drug depletion by LC-MS/MS method; format: ADME; conditions: recombinant enzyme
Cytochrome P450 2C9 [9] = target: T2, Cytochrome P450 2C9; experiment: Intrinsic clearance assessed as human recombinant CYP2C9-mediated drug depletion per pmol protein by LC-MS/MS method; format: ADME; conditions: recombinant enzyme
Cytochrome P450 2C19 [10] = target: T3, Cytochrome P450 2C19; experiment: Intrinsic clearance assessed as human recombinant CYP2C19-mediated drug depletion per pmol protein by LC-MS/MS method; format: ADME; conditions: recombinant enzyme
Cytochrome P450 2D6 [11] = target: T6, Cytochrome P450 2D6 (Homo sapiens, UniProt P10635); experiment: Intrinsic clearance assessed as human recombinant CYP2D6-mediated drug depletion per pmol protein by LC-MS/MS method; format: ADME; conditions: recombinant enzyme
Cytochrome P450 3A4 [12] = target: T1, Cytochrome P450 3A4; experiment: Intrinsic clearance assessed as human recombinant CYP3A4-mediated drug depletion per pmol protein by LC-MS/MS method; format: ADME; conditions: recombinant enzyme
Cytochrome P450 2C9 [13] = target: T2, Cytochrome P450 2C9; experiment: Normalized intrinsic clearance assessed as human recombinant CYP2C9-mediated drug depletion per pmol protein by LC-MS/MS method; format: ADME; conditions: recombinant enzyme
Cytochrome P450 2C19 [14] = target: T3, Cytochrome P450 2C19; experiment: Normalized intrinsic clearance assessed as human recombinant CYP2C19-mediated drug depletion per pmol protein by LC-MS/MS method; format: ADME; conditions: recombinant enzyme
Cytochrome P450 2D6 [15] = target: T6, Cytochrome P450 2D6; experiment: Normalized intrinsic clearance assessed as human recombinant CYP2D6-mediated drug depletion per pmol protein by LC-MS/MS method; format: ADME; conditions: recombinant enzyme
Cytochrome P450 2C9 [16] = target: T2, Cytochrome P450 2C9; experiment: Fraction metabolized assessed as human recombinant CYP2C9-mediated drug depletion by LC-MS/MS method relative to total normalized intrinsic clearance; format: ADME; conditions: recombinant enzyme
Cytochrome P450 2C19 [17] = target: T3, Cytochrome P450 2C19; experiment: Fraction metabolized assessed as human recombinant CYP2C19-mediated drug depletion by LC-MS/MS method relative to total normalized intrinsic clearance; format: ADME; conditions: recombinant enzyme
Cytochrome P450 2D6 [18] = target: T6, Cytochrome P450 2D6; experiment: Fraction metabolized assessed as human recombinant CYP2D6-mediated drug depletion by LC-MS/MS method relative to total normalized intrinsic clearance; format: ADME; conditions: recombinant enzyme
Homo sapiens [19] = experiment: Cmax in human at 15 mg, po administered as single dose by liquid scintillation counting method; format: ADME, organism-based; set-up: dose 15 mg, route oral; conditions: in vivo
Homo sapiens [20] = experiment: Tlast in human at 15 mg, po administered as single dose by liquid scintillation counting method; format: ADME, organism-based; conditions: in vivo
Homo sapiens [21] = experiment: AUC (0 to infinity) in human at 15 mg, po administered as single dose by liquid scintillation counting method; format: ADME, organism-based, Plasma; set-up: dose 15 mg, time infinity, route oral; conditions: in vivo
Plasma [22] = experiment: Drug level in human plasma treated with [14C}LY2452473 at 15 mg, po after 1 hr administered as single dose by HPLC analysis; format: ADME, organism-based; conditions: in vivo
Plasma [23] = experiment: Drug level in human plasma treated with [14C}LY2452473 at 15 mg, po after 4 hrs administered as single dose by HPLC analysis; format: ADME, organism-based; conditions: in vivo
Plasma [24] = experiment: Drug level in human plasma treated with [14C}LY2452473 at 15 mg, po after 24 hrs administered as single dose by HPLC analysis; format: ADME, organism-based; conditions: in vivo
Plasma [25] = experiment: Drug level in human plasma treated with [14C}LY2452473 at 15 mg, po after 48 hrs administered as single dose by HPLC analysis; format: ADME, organism-based; conditions: in vivo

T6 sequence (P10635 whole entry): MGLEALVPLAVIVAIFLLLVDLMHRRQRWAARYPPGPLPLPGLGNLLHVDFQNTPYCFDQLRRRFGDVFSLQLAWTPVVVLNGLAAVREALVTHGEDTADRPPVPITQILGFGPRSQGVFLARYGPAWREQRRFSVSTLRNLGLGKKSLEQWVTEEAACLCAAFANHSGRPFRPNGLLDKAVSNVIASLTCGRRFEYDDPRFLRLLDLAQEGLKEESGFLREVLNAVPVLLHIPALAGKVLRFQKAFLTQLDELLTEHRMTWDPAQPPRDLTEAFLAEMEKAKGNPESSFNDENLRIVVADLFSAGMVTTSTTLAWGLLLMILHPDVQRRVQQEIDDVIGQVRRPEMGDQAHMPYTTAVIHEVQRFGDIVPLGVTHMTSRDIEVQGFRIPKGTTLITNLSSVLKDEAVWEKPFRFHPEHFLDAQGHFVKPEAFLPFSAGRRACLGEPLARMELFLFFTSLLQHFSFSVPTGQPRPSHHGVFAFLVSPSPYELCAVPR
T1 sequence (P08684 whole entry): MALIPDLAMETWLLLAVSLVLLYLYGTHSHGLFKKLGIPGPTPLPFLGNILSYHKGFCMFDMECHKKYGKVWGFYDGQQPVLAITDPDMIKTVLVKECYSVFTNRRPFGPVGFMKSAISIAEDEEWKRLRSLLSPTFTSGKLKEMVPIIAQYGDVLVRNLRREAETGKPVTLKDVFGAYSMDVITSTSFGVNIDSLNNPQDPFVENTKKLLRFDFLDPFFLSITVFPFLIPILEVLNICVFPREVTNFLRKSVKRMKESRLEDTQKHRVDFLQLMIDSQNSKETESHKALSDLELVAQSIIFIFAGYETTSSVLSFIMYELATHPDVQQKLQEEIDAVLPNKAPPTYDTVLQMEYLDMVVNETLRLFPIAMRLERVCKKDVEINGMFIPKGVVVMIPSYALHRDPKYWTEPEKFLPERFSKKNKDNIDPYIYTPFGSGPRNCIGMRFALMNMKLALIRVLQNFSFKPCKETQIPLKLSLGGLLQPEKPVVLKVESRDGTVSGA
T3 sequence (P33261 whole entry): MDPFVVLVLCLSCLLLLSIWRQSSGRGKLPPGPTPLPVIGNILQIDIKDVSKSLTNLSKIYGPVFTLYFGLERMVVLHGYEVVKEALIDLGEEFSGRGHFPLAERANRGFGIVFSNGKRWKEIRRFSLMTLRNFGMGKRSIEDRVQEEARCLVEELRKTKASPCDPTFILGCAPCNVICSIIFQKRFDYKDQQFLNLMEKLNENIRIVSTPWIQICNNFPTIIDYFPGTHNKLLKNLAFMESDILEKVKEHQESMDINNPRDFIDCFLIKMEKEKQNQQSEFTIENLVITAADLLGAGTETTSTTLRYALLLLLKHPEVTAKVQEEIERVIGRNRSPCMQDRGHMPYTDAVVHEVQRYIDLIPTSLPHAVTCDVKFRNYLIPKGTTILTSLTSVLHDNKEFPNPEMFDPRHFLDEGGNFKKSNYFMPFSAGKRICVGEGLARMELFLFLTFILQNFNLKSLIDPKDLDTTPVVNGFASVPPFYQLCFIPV
T2 sequence (P11712 whole entry): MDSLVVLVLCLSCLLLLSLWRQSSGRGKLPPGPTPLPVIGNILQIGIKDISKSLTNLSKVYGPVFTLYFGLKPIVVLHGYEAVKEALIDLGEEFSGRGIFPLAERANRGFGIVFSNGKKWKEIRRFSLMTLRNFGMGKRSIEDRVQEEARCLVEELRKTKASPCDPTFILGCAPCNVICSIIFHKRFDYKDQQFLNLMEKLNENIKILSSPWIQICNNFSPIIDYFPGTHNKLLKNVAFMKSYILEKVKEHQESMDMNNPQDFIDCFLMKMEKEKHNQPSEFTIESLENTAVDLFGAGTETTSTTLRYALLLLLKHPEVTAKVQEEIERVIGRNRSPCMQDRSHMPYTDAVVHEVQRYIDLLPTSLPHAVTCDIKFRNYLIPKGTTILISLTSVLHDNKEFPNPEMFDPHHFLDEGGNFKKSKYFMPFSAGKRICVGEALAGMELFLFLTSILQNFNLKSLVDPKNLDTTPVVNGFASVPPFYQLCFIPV
Cytochrome P450 2E1, sequence (P05181 whole entry): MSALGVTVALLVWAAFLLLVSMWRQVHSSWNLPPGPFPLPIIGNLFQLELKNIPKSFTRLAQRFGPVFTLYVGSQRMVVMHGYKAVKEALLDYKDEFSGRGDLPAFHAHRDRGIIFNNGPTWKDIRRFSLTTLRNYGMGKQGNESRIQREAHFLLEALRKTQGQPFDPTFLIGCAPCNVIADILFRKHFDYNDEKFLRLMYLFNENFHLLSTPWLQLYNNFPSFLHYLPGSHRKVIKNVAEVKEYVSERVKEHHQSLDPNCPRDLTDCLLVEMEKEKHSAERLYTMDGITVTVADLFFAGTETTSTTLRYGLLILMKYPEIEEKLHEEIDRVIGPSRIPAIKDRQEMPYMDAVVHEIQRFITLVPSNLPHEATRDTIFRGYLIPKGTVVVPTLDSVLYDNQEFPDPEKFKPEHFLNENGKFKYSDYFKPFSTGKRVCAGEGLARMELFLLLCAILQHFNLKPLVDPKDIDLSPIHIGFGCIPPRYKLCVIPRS
Cytochrome P450 3A5, sequence (P20815 whole entry): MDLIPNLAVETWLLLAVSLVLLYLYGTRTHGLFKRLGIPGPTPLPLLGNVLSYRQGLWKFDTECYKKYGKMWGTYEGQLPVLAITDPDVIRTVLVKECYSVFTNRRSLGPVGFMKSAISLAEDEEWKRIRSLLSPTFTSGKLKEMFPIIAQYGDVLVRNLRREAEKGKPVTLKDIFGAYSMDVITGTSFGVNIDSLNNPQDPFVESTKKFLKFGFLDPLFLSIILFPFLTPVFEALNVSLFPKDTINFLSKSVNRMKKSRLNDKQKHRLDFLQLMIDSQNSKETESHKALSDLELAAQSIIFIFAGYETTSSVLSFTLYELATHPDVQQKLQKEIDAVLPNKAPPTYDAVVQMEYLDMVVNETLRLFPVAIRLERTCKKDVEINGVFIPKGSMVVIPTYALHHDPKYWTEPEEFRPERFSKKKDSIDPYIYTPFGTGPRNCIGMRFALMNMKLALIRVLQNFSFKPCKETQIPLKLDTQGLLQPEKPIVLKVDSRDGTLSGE

CC(C)OC(=O)N[C@H]1Cc2c(n(Cc3ccccn3)c3ccc(C#N)cc23)C1 [LY2452473]
Fm (Cytochrome P450 3A4 [1]): 68% | Drug metabolism (Cytochrome P450 2C9 [2]): metabolite_not_detected | Drug metabolism (Cytochrome P450 2C19 [3]): metabolite_not_detected | Drug metabolism (Cytochrome P450 3A4 [4]): metabolite_not_detected | Drug uptake (Plasma [5]): 42.2% | dose excreted [6]: 1.84% | Drug metabolism [7]: metabolite_detected | Drug metabolism [8]: metabolite_detected | Drug metabolism (Cytochrome P450 1A2): metabolite_not_detected | Drug metabolism (Cytochrome P450 2B6): metabolite_not_detected | Drug metabolism (Cytochrome P450 2E1): metabolite_not_detected | Drug metabolism (Cytochrome P450 3A5): metabolite_not_detected | CL (Cytochrome P450 2C9 [9]): 0.1 µL/min | CL (Cytochrome P450 2C19 [10]): 0.3 µL/min | CL (Cytochrome P450 2D6 [11]): 0.3 µL/min | CL (Cytochrome P450 3A4 [12]): 0.75 µL/min | CL (Cytochrome P450 2C9 [13]): 10 µL/min | CL (Cytochrome P450 2C19 [14]): 5.7 µL/min | CL (Cytochrome P450 2D6 [15]): 3 µL/min | Fm (Cytochrome P450 2C9 [16]): 8.5% | Fm (Cytochrome P450 2C19 [17]): 4.9% | Fm (Cytochrome P450 2D6 [18]): 2.6% | Cmax (Homo sapiens [19]): 91.5 ng/mL | Tlast (Homo sapiens [20]): 168 h | AUC (Homo sapiens [21]): 1330 ng·h/mL | Drug uptake (Plasma [22]): 74.5% | Drug uptake (Plasma [23]): 66.33% | Drug uptake (Plasma [24]): 28.81% | Drug uptake (Plasma [25]): 27.67%
